According to patent US7713960B2, “Inhibition of the Raf/Mek/P-Erk pathway for treating cancer” (University of South Florida, priority 2005, dated 2010):
Where a name gives a salt, the structure may show the parent alone.

How the values were obtained:
Format in all cases: cell-based, human
MDA-MB-231 cells = assay: Total cellular cAMP measurement, MDA-MB-231
Description: (§1) Total cellular cAMP measurement—The measurement of total cellular cAMP was done using a cAMP Biotrak ™ Enzymeimmunoassay (EIA) system (Amersham Biosciences, Piscataway, N.J.) according to the manufacturer's protocol. Briefly, 2000 cells were plated into each well of a 96 well plate. The next day cells were treated with increasing concentrations of ARA-211 or with vehicle for one hour. Alternatively, MDA-MB-231 cells were pre-treated with antagonists to the α1 (Prazosin, Sigma), α2 (Yohimbine, Sigma), β1 (Metoprolol, Sigma), and β2 (ICI 118.551, Sigma) adrenergic receptors at 100 nM for 15 minutes followed by treatment with 10 μM ARA-211 for 45 minutes. Cells were then lysed directly in the wells using the supplied lysis buffer. The lysate was transferred to a 96-well cAMP ELISA plate, and results were quantified using a Wallac Victor 2 plate reader.

SF-539 cells [1] = assay: Total cellular cAMP measurement, SF-539
Description: as §1

ACHN cells = assay: Total cellular cAMP measurement, ACHN
Description: as §1

P-Erk 1/2 = P-Erk 1/2 levels (Western blotting), ACHN
Description: (§2) Western Blotting—Treated cell samples were lysed in 30 mM HEPES, 10 mM NaCl, 5 mM MgCl2, 25 mM NaF, 1 mM EGTA, 1% Triton-X-100, 10% Glycerol, 2 mM Sodium orthovanidate, 10 μg/mL aprotinin, 10 μg/mL soybean trypsin inhibitor, 25 μg/mL leupeptin, 2 mM phenylmethylsulfonylfluoride (PMSF), 6.4 mg/mL p-nitrophenylphosphate for 30 minutes at 4° C., and proteins run on SDS-PAGE gels then transferred to nitrocellulose membranes. Membranes were blocked in either 5% milk in PBS, pH 7.4, containing 0.1% Tween-20 (PBS-T) or 1% BSA in TBS, pH 7.5, containing 0.1% Tween-20 (TBS-T). Phospho-STAT3 and phospho-AKT antibodies were diluted in 1% BSA in TBS-T while phospho-c-Raf, phospho-Mek, and phospho-p44/p42 MAPK antibodies (Cell Signaling) were diluted in 5% milk in PBS-T for either 1 hour at room temperature or overnight at 4° C. HRP-conjugated secondary antibodies (Jackson ImmunoResearch, West Grove, Pa.) were diluted in 5% milk in PBS-T or TBS-T at a 1:1000 dilution for one hour at room temperature. Western blots results were visualized using enhanced chemiluminescence. Stripping of the membranes for reblotting was done using stripping buffer (62.5 mM Tris pH 7.6, 2% SDS, 0.7% 2-mercaptoethanol) at 50° C. for 30 minutes.

SF-539 cells [2] = assay: Anchorage-dependent growth (MTT assay), SF-539
Description: MTT Assay—2000 cells per well were plated into 96 well tissue culture plates, and the cells were allowed to attach overnight at 37° C. with 10% CO2. Cells were then treated with increasing concentrations of ARA-211, or vehicle (DMSO) and incubated for four days. At that time treatment medium was removed and replaced with 100 μl of lmg/ml MTT (Sigma-Aldrich, St. Louis, Mo.) in media and incubated at 37° C., 10% CO2 for 3 hours. After 3 hours the MTT media was removed and replaced with 100 μl/well of DMSO, rocked at room temperature for 5 minutes, then absorbance read at 540 nm on a micro-plate reader.

P-STAT3 = P-STAT3 levels (Western blotting), MDA-MB-231
Description: as §2

Mek-1 = assay: In vivo kinase assay, intact MDA-MB-231 cells treated, Mek-1; details: 10 μM
Description: In Vitro Kinase Assays—MDA-MB-231 cells (2×10^6) were lysed for 30 minutes at 4° C. in RIPA-150 buffer (10 mM Tris pH 7.5, 150 mM NaCl, 10% glycerol, 5 mM EDTA, 1% Triton X-100, 0.1% SDS, 100 μM sodium orthovanadate, 1 μM aprotinin, 10 μM leupeptin, 10 μM antipain). Cell debris was pelleted at 13000 rpm for 15 minutes at 4° C. and the lysate was rocked overnight with 10 μg of either c-Raf or MEK antibodies (Santa Cruz Biotechnologies, Santa Cruz, Calif.). 25 μl of protein A/G PLUS agarose (Santa Cruz Biotechnology) was then added and rocked for 4 hours at 4° C. Samples were spun at 2000 rpm for 5 minutes to collect the agarose beads, which were then washed four times with lysis buffer. On the final wash each pellet was divided into 5. […]

Rap-1 = Rap-1 activation assay, ACHN cells
Description: The effect of B2AR stimulation on Rap1 was investigated using the following methods: A Rap-1 activation assay kit (Upstate, Temecula, Calif.) was used according to protocol to determine if stimulation of the B2AR by ARA-211, and subsequent downstream signaling resulting in inhibition of P-Erk 1/2, is mediated by activation of Rap-1 directly by the Rap-1 guanine nucleotide exchange factor Epac. […] Cells were incubated with drugs for 1 hour unless noted otherwise. Cells were then lysed, the positive control lysate was incubated with 10 mM EDTA and 100 μM GTPγS and incubated for 30 minutes to load GTP onto Rap-1. Lysates from all samples were then incubated with 25 μg GST-RalGDS-Rap-1 binding domain beads for 45 minutes, washed with assay buffer 3×, resuspended in 40 μl of 2×Laemmli sample buffer and boiled for 5 minutes. Samples were resolved by SDS-PAGE electrophoresis, transferred to nitrocellulose, blotted overnight with 1 μ/ml polyclonal anti-Rap-1, and visualized by chemiluminescence.

cAMP (Fold Induction) (MDA-MB-231 cells): 16.7 ± 5.4 Fold | cAMP (Fold Induction) (SF-539 cells [1]): 13.1 ± 3.0 Fold | cAMP (Fold Induction) (ACHN cells): 16.5 ± 3.2 Fold
SMILES: CC(C)(C)NCC(O)c1ccc(O)c(CO)n1 (centres unmarked) [ARA-211, 2-hydroxymethyl-3-hydroxy-6-(1-hydroxy-2-tert-butylaminoethyl) pyridine, dihydrochloride]
formation of cAMP (MDA-MB-231 cells): induced the formation of CAMP | adrenergic receptor selectivity (which antagonist blocks cAMP induction) (MDA-MB-231 cells; β1, β2, α1, α2 antagonists 100 nM pre-treatment, 10 μM ARA-211): highly selective for β2 adrenergic receptors | P-Erk ½ (% Inhibition) (P-Erk 1/2): 91% | Anchorage Dependent Growth (% Inhibition) (SF-539 cells [2]): 55 ± 6.9% | P-STAT3 levels (P-STAT3): not | Mek-1 kinase activity, intact cells first treated (Mek-1): blocked | Rap-1 activation (GTP-loaded Rap-1) (Rap-1; 10 μM, 1 hour): activated Rap-1 | Rap-1 activation after blocking PKA kinase activity (Rap-1; pre-treatment with 10 μM H89 (1 hr) followed by ARA-211): had no effect on the ability of ARA-211 to stimulate Rap-1 activation
